{"source": "patent US20210235699A1", "about": "“Adjuvant Compositions Comprising a Tetramethylguanidine and a 4-Isothiazolin-3-One” (Lonza, LLC, priority 2018, published 2021)", "assay_type_in_all_cases": "cell-based", "key": {"[1]": {"test_system": "fungal test inoculum: Aspergillus niger, Penicillium funiculosum, Candida albicans", "experiment": "Fungal challenge test (ASTM D2574-97, modified) in standard water based interior paint", "parameters": "key to Streak plate rank, 2nd inoculation 72 h / Streak plate rank, 1st inoculation 72 h / Streak plate rank, 1st inoculation 24 h / Streak plate rank, 2nd inoculation 24 h / Streak plate rank, 3rd inoculation 24 h: 0 = no growth; 1 = 1-5 Colony Forming Unit (cfu); 2 = 6-15 cfu; 3 = 16-30 cfu; 4 = 31-45 cfu; 5 = greater than 45 cfu; 5c = Confluent Growth", "details": "for Dilution plate count, 3rd inoculation 72 h / Streak plate rank, 3rd inoculation 24 h: inoculum 0.50%; for Streak plate rank, 1st inoculation 24 h / Streak plate rank, 1st inoculation 72 h: inoculum 2%; for effect of guanidine on fungicidal activity of 4-isothiazolin-3-ones (in words): in combination with BIT and BBIT, Tables 4 and 6", "procedure": "(§1) The following bacterial and fungal challenge tests were performed to ascertain whether low concentrations of 4-isothiazolin-3-one biocidal active compounds, pyrithione, coumarin or guanidine adjuvant are sufficient to prevent microbial contamination of final products when deliberately inoculated with spoilage microbes.\n(§2) The tests were performed according to ASTM standard D2574-97 (Standard Test Method for Resistance of Emulsion Paints in the Container to Attack by Microorganisms, ASTM International, West Conshohocken, Pa.), with higher inoculation volumes and frequency. A standard water based interior paint was used as the test substrate. Sample sizes of 20 g test substrate were used and the test samples were prepared in a sterile 30 mL square Nalgene bottle.\nFungal lawns were grown on Potato Dextrose Agar (PDA) or Sabouraud Dextrose Agar (SAB). Individual fungal spore suspensions were harvested by adding 10 mL of sterile 0.05% Triton X to fungal lawns. The lawns were then gently agitated by rubbing a sterile swab on the lawn, being careful not to puncture the agar. The liquid was then aseptically transferred to a sterile bottle containing sterile glass beads. The top of the bottle was closed and the bottle shaken vigorously to break up any chunks in the suspension. The shaken spore suspension was decanted through sterile fibers into another sterile bottle. The decanted spore suspension was counted using a hemocytometer. Once the spore counts were determined, each suspension was diluted in order to obtain 10^6 spore/mL. Each diluted fungal suspension was poured into a sterile container.\n(§3) The following microorganisms were used for inoculation of the tested samples:\nFor the bacterial challenge testing, each sample was inoculated with a combined bacterial test inoculum volume equivalent to 10% of the total initial sample volume for the initial inoculation, 5% of the total initial sample volume for the second inoculation and 2.5% of the total initial sample volume for the third inoculation. […] Samples were inoculated every 96 h.\n(§4) Concentrations of biocidal active compounds and adjuvants refer to the final concentration in the test samples prior to the first inoculation.\n(§5) The efficacy of the added agent in each sample was monitored by means of a streak plate test after 24 hours (all inoculations) and 72 hours of inoculation (first and second inoculation). At 72 hours of the third inoculation performed, a dilution plate count was performed in order to obtain a quantitative measurement of contamination (cfu/mL). A count of less than 10 colony forming units per mL ([…]) is considered to show no measurable contamination. For the streak plate tests, bacterial samples were streaked on Tryptic Soy Agar (TSA) and incubated for 48 hours at 30° C. before reading. Fungal samples were streaked on Potato Dextrose Agar (PDA) and incubated for 5 days at 25° C. before reading.\n(§6) The streak plates were ranked from 0-5c according to the degree of microbial growth:\n(§7) The challenge tests were performed as described above."}, "[2]": {"test_system": "combined bacterial test inoculum: Acinetobacter calcoaceticus, Escherichia coli, Pseudomonas aeruginosa, Enterobacter cloacae", "experiment": "Bacterial challenge test (ASTM D2574-97, modified) in standard water based interior paint", "parameters": "key to Streak plate rank, 1st inoculation 24 h / Streak plate rank, 1st inoculation 72 h / Streak plate rank, 2nd inoculation 72 h / Streak plate rank, 3rd inoculation 24 h: 0 = no growth; 1 = 1-5 Colony Forming Unit (cfu); 2 = 6-15 cfu; 3 = 16-30 cfu; 4 = 31-45 cfu; 5 = greater than 45 cfu; 5c = Confluent Growth", "details": "for Dilution plate count, 3rd inoculation 72 h / Streak plate rank, 3rd inoculation 24 h: inoculum 2.50%; for Streak plate rank, 2nd inoculation 72 h: inoculum 5%; for Streak plate rank, 1st inoculation 24 h / Streak plate rank, 1st inoculation 72 h: inoculum 10%; for effect of guanidine on bactericidal activity of 4-isothiazolin-3-ones (in words): in combination with BIT and BBIT, Tables 3 and 5", "procedure": "as §1, §2\nThe bacteria were grown on pH 5, 7, or 9 Trypticase Soy Agar (TSA) lawns. The bacteria were grown individually on TSA and harvested by using sterile buffered water. The bacterial lawns were washed off with 30 mL of sterile water and an equal volume of each individual cell suspension was withdrawn from each serum bottle to make a combined cell suspension. Combined bacterial suspension were about 10^7 cfu/mL, which provides about 10^6 cfu/mL in the sample.\nas §3\nFor the bacterial challenge testing, each sample was inoculated with a combined bacterial test inoculum volume equivalent to 10% of the total initial sample volume for the initial inoculation, 5% of the total initial sample volume for the second inoculation and 2.5% of the total initial sample volume for the third inoculation. Inoculum volumes for the fungal challenge tests were 2%, 1% and 0.5% of the total initial sample volume, respectively. Samples were inoculated every 96 h.\nas §4, §5, §6, §7"}, "[3]": {"test_system": "bacterial test inoculum (Acinetobacter calcoaceticus, Escherichia coli, Pseudomonas aeruginosa, Enterobacter cloacae)", "experiment": "Quick kill testing in pre-contaminated standard interior paint (dilution-plate counts)", "procedure": "An additional test was performed to analyze how quickly the tested biocidal compositions will recover a sample from microbial spoilage. For each sample, 20 g of a pre-contaminated standard interior paint formulation serving as a test substrate was weighed into a sterile container. All samples were contaminated with the bacterial test inoculum described above (10% of the of the total initial sample volume).\nA dilution-plate count was performed on the untreated sample (0 hour time point) and a biocidal composition added aseptically to each sample. Subsequent to this treatment, further dilution-plate counts were performed at fixed time intervals (time points are given in hours) on each sample, including an untreated negative control. All samples were incubated at 30° C.±2° C.\nConcentrations in ppm refer to final concentrations of the biocidal compositions in the test samples. The relative amounts of active compounds and adjuvant in the tested biocidal compositions were as indicated below: […]"}}, "note": "Entries after “also recorded” stand apart in the source; their conditions may differ. Structures can show the parent of a compound that is named as a salt. Marks after values point to notes of the source that are not given here."}
{"smiles": "[Na+].[O-][n+]1ccccc1[S-]", "note": "[NaPT, sodium pyrithione]", "values": [{"measurement": "Dilution plate count, 3rd inoculation 72 h", "setting": "[1]; 80 ppm", "value": "<10", "unit": "cfu/mL"}, {"measurement": "Streak plate rank, 3rd inoculation 24 h", "setting": "[1]; 80 ppm", "value": 0}, {"measurement": "Streak plate rank, 2nd inoculation 24 h", "setting": "[1]; 80 ppm, inoculum 1%", "value": 0}, {"measurement": "Streak plate rank, 2nd inoculation 72 h", "setting": "[1]; 80 ppm, inoculum 1%", "value": 0}, {"measurement": "Streak plate rank, 1st inoculation 24 h", "setting": "[1]; 80 ppm", "value": 0}, {"measurement": "Streak plate rank, 1st inoculation 72 h", "setting": "[1]; 80 ppm", "value": 0}, {"measurement": "Dilution plate count, 3rd inoculation 72 h", "setting": "[2]; 80 ppm", "value": "2.2 × 10^7 cfu/mL"}, {"measurement": "Streak plate rank, 3rd inoculation 24 h", "setting": "[2]; 80 ppm", "value": 5, "unit": "c"}, {"measurement": "Streak plate rank, 2nd inoculation 72 h", "setting": "[2]; 80 ppm", "value": 5, "unit": "c"}, {"measurement": "Streak plate rank, 1st inoculation 24 h", "setting": "[2]; 80 ppm", "value": 5, "unit": "c"}, {"measurement": "Streak plate rank, 1st inoculation 72 h", "setting": "[2]; 80 ppm", "value": 5, "unit": "c"}]}
{"smiles": "CN(C)C(=N)N(C)C", "note": "[TMG, 1,1,3,3-tetramethylguanidine]", "values": [{"measurement": "Dilution plate count, 3rd inoculation 72 h", "setting": "[1]; 750 ppm", "value": "<10", "unit": "cfu/mL"}, {"measurement": "Streak plate rank, 3rd inoculation 24 h", "setting": "[1]; 750 ppm", "value": "3 (3 = 16-30 cfu)"}, {"measurement": "Streak plate rank, 1st inoculation 24 h", "setting": "[1]; 750 ppm", "value": "4 (4 = 31-45 cfu)"}, {"measurement": "Streak plate rank, 1st inoculation 72 h", "setting": "[1]; 750 ppm", "value": 0}, {"measurement": "Streak plate rank, 2nd inoculation 72 h", "setting": "[1]; 750 ppm, inoculum added was 2%", "value": "1** (1 = 1-5 Colony Forming Unit (cfu))"}, {"measurement": "Dilution plate count, 3rd inoculation 72 h", "setting": "[1]; 1000 ppm", "value": "<10", "unit": "cfu/mL"}, {"measurement": "Streak plate rank, 3rd inoculation 24 h", "setting": "[1]; 1000 ppm", "value": "3 (3 = 16-30 cfu)"}, {"measurement": "Streak plate rank, 1st inoculation 24 h", "setting": "[1]; 1000 ppm", "value": "4 (4 = 31-45 cfu)"}, {"measurement": "Streak plate rank, 1st inoculation 72 h", "setting": "[1]; 1000 ppm", "value": 0}, {"measurement": "Streak plate rank, 2nd inoculation 72 h", "setting": "[1]; 1000 ppm, inoculum added was 2%", "value": "0**"}, {"measurement": "Dilution plate count, 3rd inoculation 72 h", "setting": "[1]; 1250 ppm", "value": "<10", "unit": "cfu/mL"}, {"measurement": "Streak plate rank, 3rd inoculation 24 h", "setting": "[1]; 1250 ppm", "value": "3 (3 = 16-30 cfu)"}, {"measurement": "Streak plate rank, 1st inoculation 24 h", "setting": "[1]; 1250 ppm", "value": "2 (2 = 6-15 cfu)"}, {"measurement": "Streak plate rank, 1st inoculation 72 h", "setting": "[1]; 1250 ppm", "value": 0}, {"measurement": "Streak plate rank, 2nd inoculation 72 h", "setting": "[1]; 1250 ppm, inoculum added was 2%", "value": "0**"}, {"measurement": "Dilution plate count, 3rd inoculation 72 h", "setting": "[1]; 1500 ppm", "value": "<10", "unit": "cfu/mL"}, {"measurement": "Streak plate rank, 3rd inoculation 24 h", "setting": "[1]; 1500 ppm", "value": "3 (3 = 16-30 cfu)"}, {"measurement": "Streak plate rank, 1st inoculation 24 h", "setting": "[1]; 1500 ppm", "value": "2 (2 = 6-15 cfu)"}, {"measurement": "Streak plate rank, 1st inoculation 72 h", "setting": "[1]; 1500 ppm", "value": 0}, {"measurement": "Streak plate rank, 2nd inoculation 72 h", "setting": "[1]; 1500 ppm, inoculum added was 2%", "value": "0**"}, {"measurement": "effect of guanidine on fungicidal activity of 4-isothiazolin-3-ones (in words)", "setting": "[1]", "value": "enhancing effect; also recorded: significantly improved"}, {"measurement": "Dilution plate count, 3rd inoculation 72 h", "setting": "[2]; 750 ppm", "value": "1.7 × 10^5 cfu/mL"}, {"measurement": "Streak plate rank, 3rd inoculation 24 h", "setting": "[2]; 750 ppm", "value": 5, "unit": "c"}, {"measurement": "Streak plate rank, 2nd inoculation 72 h", "setting": "[2]; 750 ppm", "value": 5, "unit": "c"}, {"measurement": "Streak plate rank, 1st inoculation 24 h", "setting": "[2]; 750 ppm", "value": "5 (5 = greater than 45 cfu)"}, {"measurement": "Streak plate rank, 1st inoculation 72 h", "setting": "[2]; 750 ppm", "value": 5, "unit": "c"}, {"measurement": "Dilution plate count, 3rd inoculation 72 h", "setting": "[2]; 1000 ppm", "value": "2.1 × 10^6 cfu/mL"}, {"measurement": "Streak plate rank, 3rd inoculation 24 h", "setting": "[2]; 1000 ppm", "value": 5, "unit": "c"}, {"measurement": "Streak plate rank, 2nd inoculation 72 h", "setting": "[2]; 1000 ppm", "value": 5, "unit": "c"}, {"measurement": "Streak plate rank, 1st inoculation 24 h", "setting": "[2]; 1000 ppm", "value": "5 (5 = greater than 45 cfu)"}, {"measurement": "Streak plate rank, 1st inoculation 72 h", "setting": "[2]; 1000 ppm", "value": "5 (5 = greater than 45 cfu)"}, {"measurement": "Dilution plate count, 3rd inoculation 72 h", "setting": "[2]; 1250 ppm", "value": "6.6 × 10^6 cfu/mL"}, {"measurement": "Streak plate rank, 3rd inoculation 24 h", "setting": "[2]; 1250 ppm", "value": 5, "unit": "c"}, {"measurement": "Streak plate rank, 2nd inoculation 72 h", "setting": "[2]; 1250 ppm", "value": 5, "unit": "c"}, {"measurement": "Streak plate rank, 1st inoculation 24 h", "setting": "[2]; 1250 ppm", "value": 0}, {"measurement": "Streak plate rank, 1st inoculation 72 h", "setting": "[2]; 1250 ppm", "value": 0}, {"measurement": "Dilution plate count, 3rd inoculation 72 h", "setting": "[2]; 1500 ppm", "value": "<10", "unit": "cfu/mL"}, {"measurement": "Streak plate rank, 3rd inoculation 24 h", "setting": "[2]; 1500 ppm", "value": "3 (3 = 16-30 cfu)"}, {"measurement": "Streak plate rank, 2nd inoculation 72 h", "setting": "[2]; 1500 ppm", "value": 0}, {"measurement": "Streak plate rank, 1st inoculation 24 h", "setting": "[2]; 1500 ppm", "value": 0}, {"measurement": "Streak plate rank, 1st inoculation 72 h", "setting": "[2]; 1500 ppm", "value": 0}, {"measurement": "effect of guanidine on bactericidal activity of 4-isothiazolin-3-ones (in words)", "setting": "[2]", "value": "significantly improved"}, {"measurement": "Dilution-plate count T4", "setting": "[3]; Table 9, 940 ppm, 4 hours after treatment, 30° C.", "value": "1.19 × 10^7"}, {"measurement": "Dilution-plate count T8", "setting": "[3]; Table 9, 940 ppm, 8 hours after treatment, 30° C.", "value": "1.02 × 10^7"}, {"measurement": "Dilution-plate count T24", "setting": "[3]; Table 9, 940 ppm, 24 hours after treatment, 30° C.", "value": "4.0 × 10^6"}, {"measurement": "quick kill performance (in words)", "setting": "[3]; Tables 8 and 9", "value": "markedly accelerated the recovery"}]}
{"smiles": "CNC(=N)N", "note": "[methylguanidine HCl, Methylguanidine HCl]", "values": [{"measurement": "effect of guanidine on fungicidal activity of 4-isothiazolin-3-ones (in words)", "setting": "[1]", "value": "not achieved"}, {"measurement": "effect of guanidine on bactericidal activity of 4-isothiazolin-3-ones (in words)", "setting": "[2]", "value": "not achieved"}]}
